Assay results taken from PubChem BioAssay AID179 (DTP/NCI, 2004).
Calls of active or inactive are those of the source.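 Rule for the calls: active = compounds giving half or more protection of infected cells from virus-caused growth loss, again on retest; inactive = the rest.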

Tested on: CEM cells HIV-1 protection, formazan growth assay
Test: NCI AIDS Antiviral Assay
Details: for IC50: measured here: growth of uninfected CEM cells
Summary of the method: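 Steps: treat uninfected and HIV-1-infected human CEM cells at five drug levels; quantify growth by soluble formazan; retest any compound reaching 50% protection; classify actives from the retest.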

SMILES | EC50 [µM] | IC50 [µM] | outcome
COC(=O)c1ccn2c(N(C)C)[n+]3ccc(C(=O)OC)cc3c2c1 | > 100 | > 100 | –
CN(C)CCCN=C(N)N | > 200 | > 200 | –
CC(=O)OC1[C@@H](OC(C)=O)CN(OCc2ccccc2)C[C@H]1OC(C)=O (some centres undefined) | > 200 | > 200 | –
OC1C(O)C2(C[C@H]1Br)OC(COCc1ccccc1)[C@@H](COCc1ccccc1)O2 (some centres undefined) | – | – | inactive
COC(=O)C1=CC2OC1(C)CCC2=O (centres undefined) | – | – | inactive
C=CCSc1n[nH]c(=S)c2nc[nH]c12 | > 200 | 129 | –
CC1=C(C(=O)NNC(=O)c2ccccc2O)CC(C(=O)NNC(=O)c2ccccc2O)=C(C)N1 | > 200 | 1.66 | –
COc1ccc(-n2nc(C)ccc2=O)cc1 | > 1150 | 776 | –
CCN1C[C@]2(OC(=O)c3ccccc3NC(C)=O)CCC(OC)C34[C@@H]1[C@@](O)(C[C@@H]32)[C@@]1(O)C[C@H](OC)[C@@H]2C[C@@H]4[C@]1(O)C2OC (some centres undefined) | – | – | inactive
CCN(CC)CSc1nc2ccccc2o1 | – | – | inactive
CN(C)c1cccc2c1C(=O)C=CC21c2ccc(N(C)C)c3c(N(C)C)ccc(c23)C(c2ccccc2)C1c1ccccc1 (centres undefined) | > 100 | 7.08 | –
CC(=O)NS(=O)(=O)c1ccc(NC(=O)c2ccccc2SC(=O)CCCC[n+]2ccccc2)cc1 | 1.78 | > 200 | –
CON(C)c1nc2ccccc2o1 | > 200 | 107 | –
O=C(/C=C/c1ccccc1O)c1cccc2ccccc12 | 93.3 | 95.5 | –
COCS(=O)(=O)c1ccccc1 | > 708 | > 708 | –
CCCCOc1cccc(/C=N/N=C(/N)NO)c1 | – | – | inactive
CCOC(=O)/C(=N/Nc1ccc(C)cc1)N1C(=S)C=C(C)NN(C)C1=S | > 200 | > 200 | –
CC(=O)Nc1ccc(-c2nnc(SCC(=O)Nc3ccccc3Cl)o2)cc1 | > 46.8 | > 46.8 | –
Brc1ccc(-c2ccc(-c3ccc(-c4ccc(Br)s4)s3)s2)s1 | > 200 | > 200 | –
Clc1cccc(N2CCN(CCCN3CCc4c([nH]c5ccccc45)C3c3cccnc3)CC2)c1 (centres undefined) | > 5.37 | > 5.37 | –
CCc1ccc(C2=C(O)C(=O)C(c3ccccc3)=C(O)C2=O)cc1 | > 87.1 | 44.7 | –
Cn1c2ccccc2n2c3ccccc3c(=S)c(C#N)c12 | > 100 | > 100 | –

SMILES | EC50 [µM] | IC50 [µM] | outcome
CC1=CCS(=O)(=O)C1C(O)C1=C(C)CCCC1(C)C (centres undefined) | > 200 | 40.7 | –
Clc1ccc(-c2nnc3c4nnc(-c5ccc(Cl)cc5Cl)n4c4ccccc4n23)c(Cl)c1 | – | – | inactive
N#C/C(=C\c1ccc(Br)cc1)c1nc(-c2cc3ccccc3oc2=O)cs1 | 83.2 | > 100 | –
COc1ccc(C[C@H](N)C(=O)NC2C(CO)OC(n3cnc4c(N(C)C)ncnc43)C2O)cc1 (some centres undefined) | > 200 | 0.117 | –
COc1ccc(-c2c(C#N)c(=O)nc(SC)n2C2OCC(OC(C)=O)C(OC(C)=O)C2OC(C)=O)cc1 (centres undefined) | > 200 | 35.5 | –
CC(C)OCN1COCN=C1NC#N | > 447 | > 447 | –
O=C(c1ccccc1)[C@H]1Nc2ccc(Cl)cc2[C@H]2c3ccccc3O[C@H]21 | > 27.5 | > 27.5 | –
CC(C)CCC[C@@H](C)C1CCC2[C@@H]3CC=C4C[C@@H](C(=O)NCCN(C)C)CC[C@]4(C)C3CC[C@@]21C (some centres undefined) | – | – | inactive
S=c1oc(CCCCCCCCc2nn(CNc3ccc(Cl)cc3)c(=S)o2)nn1CNc1ccc(Cl)cc1 | – | – | inactive
CCCCCCC/C=N/[N-]C(=O)c1ccncc1.CCCCCCC/C=N\[N-]C(=O)c1ccncc1.[Ni+2] | > 100 | 64.6 | –
COC1=C(N=[N+]=[N-])C(=O)c2ncccc2C1=O | – | – | inactive
CN(C)CC(CN(C)C)c1cccc(C(CN(C)C)CN(C)C)n1 | > 741 | > 741 | –
O=C1c2c(nc3ccccc3c2-c2ccccc2)CN1Nc1ccccc1 | > 87.1 | > 87.1 | –
O=C(O)Cc1cc(=O)[nH]n(-c2ccccc2)c1=O | > 200 | > 200 | –
ClCc1ccc2ccc3ccc(CCl)nc3c2n1 | > 200 | 1.51 | –
Nc1c(C(=O)O)[nH]c(=O)[nH]c1=S | > 200 | 95.5 | –
Cc1ccc2c(c1C)CC1(Cc3c(C)ccc(C)c3C1=O)C2=O (centres undefined) | > 100 | > 100 | –
CC(C)(C)C(=O)O/C=C\OC1CCCC1(c1ccccc1)c1ccccc1 (centres undefined) | > 200 | 9.55 | –
Cn1c2c(c3ccccc31)CCN1C(=O)CN(C(=O)C3CCCCC3)CC21 (centres undefined) | > 200 | 66.1 | –
FC(F)(F)c1cccc(N(c2nc(Cl)nc(Cl)n2)c2nc(Cl)nc(Cl)n2)c1 | > 200 | > 200 | –
CC(=O)Nc1n[n+]([O-])c2cc(C)ccc2[n+]1[O-] | > 200 | 0.955 | –
CC(=O)NNC(=S)/N=C\c1c(O)[nH]c(=O)[nH]c1=O | > 200 | > 200 | –
